Measurements as given in US20240287138A1, “CYCLIC PEPTIDES FOR INHIBITING TNF RECEPTOR 1 ACTIVITY” (Merck Sharp & Dohme LLC, priority 2023, published 2024).
Numbered stars: 1 amine (or outer) side, 2 acyl side, 3 side chain; on linkers, the order of the positions; unused ones are H or OH. Bridge positions count the residues as written; N and C are the ends. Square brackets hold non-standard residues; d marks the D form. Peptide text beside a SMILES is read from it. * marks the point of attachment. Trp(βS-Me,7-OMe) = COc1cccc2c([C@H](C)[C@H](N)C(=O)O)c[nH]c12; Trp(7-Cl) = N[C@@H](Cc1c[nH]c2c(Cl)cccc12)C(=O)O; Phe(3-CONH2) = NC(=O)c1cccc(C[C@H](N)C(=O)O)c1; Phe(4-CONH2) = NC(=O)c1ccc(C[C@H](N)C(=O)O)cc1; Phe(4-COOH) = N[C@@H](Cc1ccc(C(=O)O)cc1)C(=O)O; Trp(7-aza) = N[C@@H](Cc1c[nH]c2ncccc12)C(=O)O; dPro(4S-NH2) = N[C@@H]1CN[C@@H](C(=O)O)C1; Pip(5R-OH) = O=C(O)[C@@H]1CC[C@@H](O)CN1; X1 = O=C([C@@H]1CC[C@H](N[*:1])C1)[*:2]; X19 = O=C([C@H](Cc1ccncn1)N[*:1])[*:2]; Isoxazole(3-carbonyl) = O=C(c1ccon1)*; Pip(4-aza) = O=C(O)[C@@H]1CNCCN1; hPhe = N[C@@H](CCc1ccccc1)C(=O)O; 4Pal = N[C@@H](Cc1ccncc1)C(=O)O; NMeE = CN[C@@H](CCC(=O)O)C(=O)O; dHyp = O=C(O)[C@H]1C[C@H](O)CN1; X7 = CC[C@@H](C(=O)[*:1])[*:2]; αMeS = C[C@](N)(CO)C(=O)O; Nle = CCCC[C@H](N)C(=O)O; Dab = NCC[C@H](N)C(=O)O; Sar = CNCC(=O)O

Tests used:
[1] = target: T1, human soluble TNFR1 (sTNFR1) (Homo sapiens, UniProt P19438); assay: Human sTNFR1-peptide displacement assay (LanthaScreen Eu TR-FRET binding assay)
T1 construct: made in house; host or cells: Sf21 (baculovirus)
T1 sequence (P19438 with tags, fused parts or gaps): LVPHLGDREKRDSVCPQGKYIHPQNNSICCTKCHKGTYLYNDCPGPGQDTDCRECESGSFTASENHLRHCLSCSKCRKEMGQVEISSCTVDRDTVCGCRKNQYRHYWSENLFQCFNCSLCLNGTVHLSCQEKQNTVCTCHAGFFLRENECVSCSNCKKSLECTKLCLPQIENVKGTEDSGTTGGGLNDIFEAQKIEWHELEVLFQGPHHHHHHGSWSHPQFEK
Summary of the method: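 Readout is the 665/615 nm TR-FRET ratio (Eu anti-His donor, streptavidin-Alexa647 acceptor), normalized to DMSO and saturating displacer, fit by Morrison-based five-parameter logistic for Kd^app. His-tagged sTNFR1 (1-211) prebound to 100 nM biotinylated peptide SEQ ID NO.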

human TNFR2 ECD protein = target: T2, human TNFR2 ECD protein (Homo sapiens, UniProt P20333); assay: SPR off-target binding (selectivity) to human TNFR2 ECD
T2 construct: HRV 3C protease cleavage site (C); 6His (C, cleaved yes); made in house; host or cells: Sf21 insect cells (baculovirus), secreted
T2 sequence (P20333 23-257): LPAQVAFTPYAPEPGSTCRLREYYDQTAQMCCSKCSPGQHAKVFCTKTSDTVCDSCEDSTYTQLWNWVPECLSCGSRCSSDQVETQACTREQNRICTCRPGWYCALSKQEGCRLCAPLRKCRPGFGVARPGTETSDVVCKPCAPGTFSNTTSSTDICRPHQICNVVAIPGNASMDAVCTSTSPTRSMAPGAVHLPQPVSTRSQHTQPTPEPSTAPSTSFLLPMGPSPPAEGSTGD
Summary of the method: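 Biotinylated human TNFR1 or TNFR2 ECD (C-terminal Avi-tag, Sf21-expressed) captured on a regenerable streptavidin chip; peptide analytes flowed in 10 mM HEPES pH 7.4, 150 mM NaCl, 3 mM EDTA, 0.05% P20, 2% DMSO. kon and koff measured; affinity calculated from the rate constants.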

`CCCC[C@@H]1NC(=O)[C@@H]2CC[C@@H](C2)NC(=O)[C@H]([C@@H](C)c2c[nH]c3c(OC)cccc23)NC(=O)CN(C)C(=O)[C@H](Cc2ccc(C(=O)O)cc2)NC(=O)[C@H](Cc2ccc(C(N)=O)cc2)NC(=O)[C@](C)(CO)NC(=O)[C@H](Cc2c[nH]c3c(Cl)cccc23)NC(=O)[C@H](Cc2ccncn2)NC(=O)[C@H](CC(N)=O)NC(=O)[C@H]2C[C@H](O)CN2C(=O)[C@H](Cc2c[nH]c3ncccc23)NC(=O)[C@@H]2CC[C@@H](O)CN2C(=O)[C@H](Cc2ccncc2)NC1=O` [SEQ ID NO. 159] (cyclo([4Pal][Pip(5R-OH)][Trp(7-aza)][dHyp]N[X19][Trp(7-Cl)][αMeS][Phe(4-CONH2)][Phe(4-COOH)][Sar][Trp(βS-Me,7-OMe)][X1][Nle])) gave a Kd [1] of 0.12 nM and a Kd (human TNFR2 ECD protein) of over 1000 nM.

`CCCC[C@@H]1NC(=O)[C@@H]2CC[C@@H](C2)NC(=O)[C@H]([C@@H](C)c2c[nH]c3c(OC)cccc23)NC(=O)CN(C)C(=O)[C@H](Cc2ccc(O)cc2)NC(=O)[C@H](Cc2ccc(C(=O)O)cc2)NC(=O)[C@](C)(CO)NC(=O)[C@H](Cc2c[nH]c3c(Cl)cccc23)NC(=O)[C@H](Cc2ccncc2)NC(=O)[C@H](CC(N)=O)NC(=O)[C@H]2C[C@H](N)CN2C(=O)[C@H](Cc2c[nH]c3ccccc23)NC(=O)[C@@H]2CNCCN2C(=O)[C@H](Cc2ccncc2)NC1=O` [SEQ ID NO. 161] (cyclo([4Pal][Trp(7-Cl)][αMeS][Phe(4-COOH)]Y[Sar][Trp(βS-Me,7-OMe)][X1][Nle][4Pal][Pip(4-aza)]W[dPro(4S-NH2)]N)) was tested, and the Kd [1] was 0.09 nM and the Kd (human TNFR2 ECD protein) was over 1000 nM.

Compound `CCCC[C@@H]1NC(=O)[C@@H]2CC[C@@H](C2)NC(=O)[C@H]([C@@H](C)c2c[nH]c3c(OC)cccc23)NC(=O)CN(C)C(=O)[C@H](Cc2ccc(O)cc2)NC(=O)[C@H](Cc2ccc(C(N)=O)cc2)NC(=O)[C@](C)(CO)NC(=O)[C@H](Cc2c[nH]c3c(Cl)cccc23)NC(=O)[C@H](Cc2ccncc2)NC(=O)[C@H](CC(N)=O)NC(=O)[C@H](CCC(=O)O)N(C)C(=O)[C@H](Cc2c[nH]c3ccccc23)NC(=O)[C@@H]2CC[C@@H](O)CN2C(=O)[C@H](Cc2ccncc2)NC1=O` [SEQ ID NO. 163] (cyclo([4Pal][Trp(7-Cl)][αMeS][Phe(4-CONH2)]Y[Sar][Trp(βS-Me,7-OMe)][X1][Nle][4Pal][Pip(5R-OH)]W[NMeE]N)) has a Kd [1] of 0.05 nM and a Kd (human TNFR2 ECD protein) of over 1000 nM.

`CCCC[C@@H]1NC(=O)[C@H](CC)SC[C@@H](C(N)=O)NC(=O)[C@H]([C@@H](C)c2c[nH]c3c(OC)cccc23)NC(=O)CN(C)C(=O)[C@H](Cc2ccc(O)cc2)NC(=O)[C@H](Cc2ccc(C(N)=O)cc2)NC(=O)[C@](C)(CO)NC(=O)[C@H](Cc2c[nH]c3c(Cl)cccc23)NC(=O)[C@H](Cc2ccc(C(=O)O)cc2)NC(=O)[C@H](CC(N)=O)NC(=O)[C@H](CCC(=O)O)N(C)C(=O)[C@H](Cc2c[nH]c3ncccc23)NC(=O)[C@@H]2CC[C@@H](O)CN2C(=O)[C@H](Cc2ccncc2)NC1=O` [SEQ ID NO. 168] ([Nle][4Pal][Pip(5R-OH)][Trp(7-aza)][NMeE]N[Phe(4-COOH)][Trp(7-Cl)][αMeS][Phe(4-CONH2)]Y[Sar][Trp(βS-Me,7-OMe)]C-NH2; linker N-14 via X7) gave an IC50 [1] of 0.3 nM and a Kd (human TNFR2 ECD protein) of over 1000 nM.

For `COc1cccc2c([C@H](C)[C@@H]3NC(=O)CN(C)C(=O)[C@H](Cc4cccc(C(N)=O)c4)NC(=O)[C@H](Cc4ccc(C(N)=O)cc4)NC(=O)[C@](C)(CO)NC(=O)[C@H](Cc4c[nH]c5c(Cl)cccc45)NC(=O)[C@H](Cc4ccncc4)NC(=O)[C@H](CC(N)=O)NC(=O)[C@H]4C[C@H](O)CN4C(=O)[C@H](Cc4c[nH]c5ccccc45)NC(=O)[C@@H]4CC[C@@H](O)CN4C(=O)[C@H](Cc4ccncc4)NC(=O)[C@H](CCNC(=O)c4ccon4)NC(=O)[C@@H]4CC[C@@H](C4)NC3=O)c[nH]c12` [SEQ ID NO. 169] (cyclo([4Pal][Trp(7-Cl)][αMeS][Phe(4-CONH2)][Phe(3-CONH2)][Sar][Trp(βS-Me,7-OMe)][X1][Dab](Isoxazole(3-carbonyl))[4Pal][Pip(5R-OH)]W[dHyp]N)), the Kd [1] was 0.16 nM and the Kd (human TNFR2 ECD protein) was over 1000 nM.

`CCCC[C@@H]1NC(=O)CSC[C@@H](C(N)=O)NC(=O)[C@H]([C@@H](C)c2c[nH]c3c(OC)cccc23)NC(=O)CN(C)C(=O)[C@H](Cc2ccc(O)cc2)NC(=O)[C@H](Cc2ccc(C(=O)O)cc2)NC(=O)[C@](C)(CO)NC(=O)[C@H](Cc2c[nH]c3c(Cl)cccc23)NC(=O)[C@H](Cc2ccncc2)NC(=O)[C@H](CC(N)=O)NC(=O)[C@H](CCC(=O)O)N(C)C(=O)[C@H](Cc2c[nH]c3ncccc23)NC(=O)[C@@H]2CNCCN2C(=O)[C@H](CCc2ccccc2)NC1=O` [SEQ ID NO. 172] ({CH2CO}-[Nle][hPhe][Pip(4-aza)][Trp(7-aza)][NMeE]N[4Pal][Trp(7-Cl)][αMeS][Phe(4-COOH)]Y[Sar][Trp(βS-Me,7-OMe)]C-NH2; thioether N-14) showed an IC50 [1] of 0.63 nM, a Kd [1] of 0.57 nM and a Kd (human TNFR2 ECD protein) of over 1000 nM.
